We go through 16 compounds from PubChem BioAssay AID652188 (Johns Hopkins Ion Channel Center, 2013).

Calls of active or inactive are those of the source.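 The calls were made as follows: active = peak TASK1 channel inhibition over 30% at some tested dose, plus a fitted dose response curve; inactive = no inhibition at any dose, or no curve fitted.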

One assay has as its system CHO parental cells, FluxOR thallium flux counter-screen. The experiment in a line: nonspecific flux block, untransfected cells – cell-based, FluxOR thallium flux, CRC, counter-screen for TASK1 inhibitor project, SAR follow-up (AID 652188).
Details: not given
Background: A counterscreen serves to expose hits that act by an unwanted route or on another target.
As usually defined, the IC50 is the concentration at which inhibition is half-maximal. For the compound `CCOc1ccccc1C(=O)Nc1cccc(NC(=O)c2cccc(C)c2)c1`, the IC50 is 1240 nM.

Turning to `O=C(Nc1cccc(NC(=O)c2ccccc2)c1)c1ccccc1`, the IC50 is 240 nM.

Test system in a further assay: not listed separately
The assay is described as above. The note with it: CHO parental cells, FluxOR thallium flux counter-screen; at 30 µM (top of the series).
In the case of `O=C(Nc1cccc(NC(=O)c2cccc(F)c2)c1)c1ccccc1`, the flux ratio, lower = inhibition is 0.326 (inactive).

For `Cc1cccc(C(=O)Nc2cccc(NC(=O)c3cccc(F)c3)c2)c1`, the flux ratio, lower = inhibition was 0.313 (inactive).

For the compound `Cc1cccc(C(=O)Nc2cccc(NC(=O)c3ccccc3)c2)c1`, the flux ratio, lower = inhibition is 0.319 (inactive).

For the compound `COc1ccc(F)cc1C(=O)Nc1cccc(NC(=O)c2cccc(C)c2)c1`, the flux ratio, lower = inhibition is 0.311 (inactive).

With `COc1ccccc1C(=O)Nc1cc(NC(=O)c2ccccc2C(C)C)ccc1F`, the flux ratio, lower = inhibition was 0.298 (inactive).

As to `COc1cnccc1C(=O)Nc1cccc(NC(=O)c2cccc(C)c2)c1`, the flux ratio, lower = inhibition is 0.339 (inactive).

As to `COc1ccccc1C(=O)Nc1cc(NC(=O)c2cccc(C)c2)ccc1F`, the flux ratio, lower = inhibition was 0.306 (inactive).

With `CCCC(=O)C1CCN(c2ncnc3c2CN(C(=O)c2ccc(-c4ccccc4)cc2)CC3)CC1`, the flux ratio, lower = inhibition was 0.302 (inactive).

With `COc1c(F)cccc1C(=O)Nc1cccc(NC(=O)c2cccc(C)c2)c1`, the flux ratio, lower = inhibition is 0.317 (inactive).

Regarding `COc1ccc(CC(=O)NCc2ccccc2-c2ccccc2C(=O)NCc2ccc(F)cc2F)cc1`, the flux ratio, lower = inhibition was 0.295 (inactive).

On to `COc1ccccc1C(=O)Nc1cccc(NC(=O)c2cccc(C)c2)c1`, for which the flux ratio, lower = inhibition was 0.322 (inactive).

With `Cc1cccc(C(=O)Nc2cccc(NC(=O)c3cccs3)c2)c1`, the flux ratio, lower = inhibition is 0.334 (inactive).

For `Cc1cccc(C(=O)Nc2cccc(NC(=O)c3cccc(C(F)(F)F)c3)c2)c1`, the flux ratio, lower = inhibition was 0.304 (inactive).

In the case of `Cc1cccc(C(=O)Nc2cccc(NC(=O)c3ccncc3)c2)c1`, the flux ratio, lower = inhibition was 0.32 (inactive).
